ChEMBL document CHEMBL1201862, “PubChem BioAssay data set” (2004)
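96-well plates; 48 h exposure; 5 concentrations. Endpoints by linear interpolation between flanking doses. Not reached: highest tested concentration assigned. GI50: concentration for 50% inhibition of growth.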 The source made the active and inactive calls. Cut-off read from the data, not from the text of the source: active = GI50 up to about 1.1 µM and inactive = higher.

Legend:
Assay in all cases: NCI anticancer screen, dose series, 48 h
KM12 = system: KM12
UACC-257 = system: UACC-257
OVCAR-8 = system: OVCAR-8
OVCAR-5 = system: OVCAR-5
MOLT-4 = system: MOLT-4
RXF 393 = system: RXF 393
U-251 = system: U-251
SR = system: SR
SK-MEL-5 = system: SK-MEL-5
UO-31 = system: UO-31
OVCAR-3 = system: OVCAR-3
EKVX = system: EKVX
LOX IMVI = system: LOX IMVI
T47D = system: T47D
HOP-62 = system: HOP-62
SW-620 = system: SW-620
MDA-MB-435 = system: MDA-MB-435
NCI-H460 = system: NCI-H460
A498 = system: A498
MDA-N = system: MDA-N
NCI-H522 = system: NCI-H522
IGROV-1 = system: IGROV-1
SF-268 = system: SF-268
Hs-578T = system: Hs-578T
SK-MEL-2 = system: SK-MEL-2
PC-3 = system: PC-3
SK-OV-3 = system: SK-OV-3
RPMI-8226 = system: RPMI-8226
A549 = system: A549
HL-60 = system: HL-60
CCRF-CEM = system: CCRF-CEM
DU-145 = system: DU-145
SN12C = system: SN12C
HOP-92 = system: HOP-92
HCC 2998 = system: HCC 2998
Malme-3M = system: Malme-3M
786-0 = system: 786-0
HT-29 = system: HT-29
COLO 205 = system: COLO 205
SNB-75 = system: SNB-75
NCI-H23 = system: NCI-H23
CAKI-1 = system: CAKI-1
SF-539 = system: SF-539
MCF7 = system: MCF7
M14 = system: M14
BT-549 = system: BT-549
HCT-15 = system: HCT-15
NCI-H226 = system: NCI-H226
OVCAR-4 = system: OVCAR-4
UACC-62 = system: UACC-62
TK-10 = system: TK-10
NCI/ADR-RES = system: NCI/ADR-RES
MDA-MB-231 = system: MDA-MB-231
SNB-19 = system: SNB-19
SK-MEL-28 = system: SK-MEL-28
SF-295 = system: SF-295
HCT-116 = system: HCT-116
K562 = system: K562
ACHN = system: ACHN

Cc1ccc(/N=C2N=C(Cl)/C(=C\c3ccccc3)N\2)cc1
GI50 (KM12): > 22.6 µM (inactive)
GI50 (UACC-257): > 76.6 µM (inactive)
GI50 (OVCAR-8): > 25.8 µM (inactive)
GI50 (OVCAR-5): > 100 µM (inactive)
GI50 (MOLT-4): 2.33 µM (inactive)
GI50 (RXF 393): > 100 µM (inactive)
GI50 (U-251): > 100 µM (inactive)
GI50 (SR): 0.625 µM (active)
GI50 (SK-MEL-5): 48.8 µM (inactive)
GI50 (UO-31): 79.1 µM (inactive)
GI50 (OVCAR-3): > 100 µM (inactive)
GI50 (EKVX): > 100 µM (inactive)
GI50 (LOX IMVI): 3.76 µM (inactive)
GI50 (T47D): 88.7 µM (inactive)
GI50 (HOP-62): > 100 µM (inactive)
GI50 (SW-620): > 25 µM (inactive)
GI50 (MDA-MB-435): 30.6 µM (inactive)
GI50 (NCI-H460): 78 µM (inactive)
GI50 (A498): > 100 µM (inactive)
GI50 (MDA-N): 51.9 µM (inactive)
GI50 (NCI-H522): > 100 µM (inactive)
GI50 (IGROV-1): > 100 µM (inactive)
GI50 (SF-268): > 100 µM (inactive)
GI50 (Hs-578T): > 100 µM (inactive)
GI50 (SK-MEL-2): > 100 µM (inactive)
GI50 (PC-3): > 79.3 µM (inactive)
GI50 (SK-OV-3): > 100 µM (inactive)
GI50 (RPMI-8226): 5.11 µM (inactive)
GI50 (A549): > 100 µM (inactive)
GI50 (HL-60): 3.9 µM (inactive)
GI50 (CCRF-CEM): > 37.3 µM (inactive)
GI50 (DU-145): 64.6 µM (inactive)
GI50 (SN12C): > 100 µM (inactive)
GI50 (HOP-92): > 100 µM (inactive)
GI50 (HCC 2998): 12.2 µM (inactive)
GI50 (Malme-3M): > 100 µM (inactive)
GI50 (786-0): > 100 µM (inactive)
GI50 (HT-29): > 100 µM (inactive)
GI50 (COLO 205): 85.3 µM (inactive)
GI50 (SNB-75): > 100 µM (inactive)
GI50 (NCI-H23): > 100 µM (inactive)
GI50 (CAKI-1): > 100 µM (inactive)
GI50 (SF-539): > 100 µM (inactive)
GI50 (MCF7): > 100 µM (inactive)
GI50 (M14): > 100 µM (inactive)
GI50 (BT-549): > 100 µM (inactive)
GI50 (HCT-15): 2.88 µM
GI50 (NCI-H226): > 100 µM (inactive)
GI50 (OVCAR-4): 65.2 µM (inactive)
GI50 (UACC-62): 4.26 µM (inactive)
GI50 (TK-10): > 100 µM (inactive)
GI50 (NCI/ADR-RES): > 38.5 µM (inactive)
GI50 (MDA-MB-231): > 100 µM (inactive)
GI50 (SNB-19): > 100 µM (inactive)
GI50 (SK-MEL-28): > 100 µM (inactive)
GI50 (SF-295): > 79.3 µM (inactive)
GI50 (HCT-116): > 100 µM (inactive)
GI50 (K562): 5.52 µM (inactive)

CC(=O)OCCc1cc2ccccc2oc1=O
GI50 (KM12): > 100 µM (inactive)
GI50 (UACC-257): > 100 µM (inactive)
GI50 (OVCAR-8): > 100 µM (inactive)
GI50 (OVCAR-5): > 100 µM (inactive)
GI50 (MOLT-4): > 100 µM (inactive)
GI50 (RXF 393): > 100 µM (inactive)
GI50 (U-251): > 100 µM (inactive)
GI50 (SR): > 100 µM (inactive)
GI50 (SK-MEL-5): > 100 µM (inactive)
GI50 (UO-31): > 100 µM (inactive)
GI50 (OVCAR-3): > 100 µM (inactive)
GI50 (EKVX): 86.7 µM (inactive)
GI50 (LOX IMVI): > 100 µM (inactive)
GI50 (T47D): > 100 µM (inactive)
GI50 (HOP-62): > 100 µM (inactive)
GI50 (SW-620): > 100 µM (inactive)
GI50 (MDA-MB-435): > 100 µM (inactive)
GI50 (NCI-H460): > 100 µM (inactive)
GI50 (A498): > 100 µM (inactive)
GI50 (MDA-N): > 100 µM (inactive)
GI50 (NCI-H522): > 100 µM (inactive)
GI50 (IGROV-1): > 100 µM (inactive)
GI50 (SF-268): > 100 µM (inactive)
GI50 (Hs-578T): > 100 µM (inactive)
GI50 (SK-MEL-2): > 100 µM (inactive)
GI50 (PC-3): > 100 µM (inactive)
GI50 (RPMI-8226): > 100 µM (inactive)
GI50 (A549): > 100 µM (inactive)
GI50 (HL-60): > 100 µM (inactive)
GI50 (CCRF-CEM): > 100 µM (inactive)
GI50 (DU-145): > 100 µM (inactive)
GI50 (SN12C): > 100 µM (inactive)
GI50 (HOP-92): > 100 µM (inactive)
GI50 (HCC 2998): > 100 µM (inactive)
GI50 (Malme-3M): > 100 µM (inactive)
GI50 (786-0): > 100 µM (inactive)
GI50 (HT-29): > 100 µM (inactive)
GI50 (COLO 205): > 100 µM (inactive)
GI50 (SNB-75): > 100 µM (inactive)
GI50 (NCI-H23): > 100 µM (inactive)
GI50 (CAKI-1): > 100 µM (inactive)
GI50 (SF-539): > 100 µM (inactive)
GI50 (MCF7): > 100 µM (inactive)
GI50 (M14): > 100 µM (inactive)
GI50 (BT-549): > 100 µM (inactive)
GI50 (HCT-15): > 100 µM
GI50 (NCI-H226): > 100 µM (inactive)
GI50 (OVCAR-4): > 100 µM (inactive)
GI50 (UACC-62): > 100 µM (inactive)
GI50 (NCI/ADR-RES): > 100 µM (inactive)
GI50 (MDA-MB-231): > 100 µM (inactive)
GI50 (SNB-19): > 100 µM (inactive)
GI50 (SK-MEL-28): > 100 µM (inactive)
GI50 (SF-295): > 100 µM (inactive)
GI50 (HCT-116): > 100 µM (inactive)
GI50 (ACHN): > 100 µM (inactive)
GI50 (K562): > 100 µM (inactive)
